According to the supplement of paper PMC11208160:

Test: recombinant UMI read abundance after kanamycin selection (control-corrected) (log10(CPM+1)); higher = more efficient recombination; extreme values may be limits of the assay; sequences stand for … in AGTGCAGAGAAAATCGGCCAGTTTTCTCTGCCTGCAGTCCGCATGCCGTGGGACCCCTTGGGTTCTAACCTGTTGCCTAGATTTATGCAGCGGACTGCCTTTCTCCCAAAGTGATAAACCGG…AGGTTGGTTTCACT; site = the 11-nt donor
In short: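 In Escherichia coli, a pool of donor and donor-binding-loop pairs, each with a 12-nt UMI, was tested for the IS621 bridge recombinase. Plating was on IPTG (0.07 mM) plus kanamycin, or without selection, in two replicates. Recombinant UMIs were amplified by PCR across the donor–target junction and sequenced, and counts were reported as log10(CPM+1) after averaging and control-derived scaling.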
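Note: IS621 bridge recombinase in Escherichia coli cells against a fixed T5 target plasmid.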

Row | Sequence | recombinant UMI read abundance (log10)
1 | ATTAAGACATGGACCGGTTTTCCCGGTAATCCGTATTTGGT (site ATTTAGACTAC) | 0.285
2 | GTTGTTCCATGGACCGGTTTTCCCGGTAATCCGTATTTGGC (site GTTGTTCCTTC) | 0.0051
3 | CCACATCCATGGACCGGTTTTCCCGGTAATCCGTATTTGAC (site CCACATCCTGT) | 0
4 | ACATCTACATGGACCGGTTTTCCCGGTAATCCGTATTTGAG (site ACATCTACTCC) | 0.184
5 | CCGTGAGCATGGACCGGTTTTCCCGGTAATCCGTATTTGTG (site CCGTGAGCTCA) | 0.568
6 | CTACTAACATGGACCGGTTTTCCCGGTAATCCGTATTTGCA (site CTACTAACTTG) | 2.47
7 | ATTAAACCATGGACCGGTTTTCCCGGTAATCCGTATTTGCC (site ATTAAACCTGG) | 0
8 | CGTAACTCATGGACCGGTTTTCCCGGTAATCCGTATTTGTA (site CGTAACTCTTA) | 2.2
9 | GGGCCAACATGGACCGGTTTTCCCGGTAATCCGTATTTGTA (site GGACCAACTTA) | 0.317
10 | AGGAAGACATGGACCGGTTTTCCCGGTAATCCGTATTTGCA (site GGGAATACTTG) | 0
11 | CAGGTCACATGGACCGGTTTTCCCGGTAATCCGTATTTGGG (site CAGGTCACTCC) | 0.0396
12 | GCTTACCCATGGACCGGTTTTCCCGGTAATCCGTATTTGAT (site GCTTACCCTAT) | 0.0241
13 | CTCCCTACATGGACCGGTTTTCCCGGTAATCCGTATTTGAG (site CTCCCTACTTT) | 0.0136
14 | CAAGCACCATGGACCGGTTTTCCCGGTAATCCGTATTTGTG (site CAAGCGCCTCA) | 0.00843
15 | AGCTAGACATGGACCGGTTTTCCCGGTAATCCGTATTTGGG (site AGCTAGACTCC) | 0.0244
16 | ACCCACACATGGACCGGTTTTCCCGGTAATCCGTATTTGTA (site GCCCACACTTA) | 0.0193
17 | AGTCCGCCATGGACCGGTTTTCCCGGTAATCCGTATTTGGG (site AGTCCGCCTCC) | 0.015
18 | TAGCTAGCATGGACCGGTTTTCCCGGTAATCCGTATTTGAA (site TAGCTGGCTTT) | 0.0168
19 | GCTTAAGCATGGACCGGTTTTCCCGGTAATCCGTATTTGCC (site GCTTAAGCTGG) | 0.666

Row | Sequence | recombinant UMI read abundance (log10)
20 | ACGTAGGCATGGACCGGTTTTCCCGGTAATCCGTATTTGAA (site ACGTAGGCTTT) | 1.96
21 | GGAGTGGCATGGACCGGTTTTCCCGGTAATCCGTATTTGGG (site GGAGTGGCTTC) | 0.00897
22 | CCCCACTCATGGACCGGTTTTCCCGGTAATCCGTATTTGTA (site CCCCACCCTTA) | 0.00571
23 | CTCGAAACATGGACCGGTTTTCCCGGTAATCCGTATTTGCA (site CTTGAAACTTG) | 0
24 | AAATTCCCATGGACCGGTTTTCCCGGTAATCCGTATTTGCT (site CAATTCCCTAG) | 0.647
25 | GTGACGCCATGGACCGGTTTTCCCGGTAATCCGTATTTGAA (site GTGACGCCTTT) | 0.0255
26 | GACACAGCATGGACCGGTTTTCCCGGTAATCCGTATTTGAC (site GACACAGCTGT) | 2.44
27 | AATCTACCATGGACCGGTTTTCCCGGTAATCCGTATTTGAG (site AATCTACCTCT) | 0.0184
28 | TAGCGGTCATGGACCGGTTTTCCCGGTAATCCGTATTTGTT (site TAGCGGTCTAA) | 1.27
29 | TGCAAACCATGGACCGGTTTTCCCGGTAATCCGTATTTGGG (site TGCAAACCTCC) | 0.00989
30 | GAGCTCACATGGACCGGTTTTCCCGGTAATCCGTATTTGTT (site GAGCTCACTAT) | 1.08
31 | AGGAAGACATGGACCGGTTTTCCCGGTAATCCGTATTTGCA (site GGGAAGACTTG) | 0.614
32 | ACCTGAACATGGACCGGTTTTCCCGGTAATCCGTATTTGGC (site ACCTGAACTGC) | 1.39
33 | CAGCTCGCATGGACCGGTTTTCCCGGTAATCCGTATTTGTG (site CAGCTCGCTCA) | 0.0273
34 | CACTGTACATGGACCGGTTTTCCCGGTAATCCGTATTTGCG (site CACTGTACTCG) | 1.83
35 | ATGTTCCCATGGACCGGTTTTCCCGGTAATCCGTATTTGTG (site AGGTTCCCTCA) | 0.0415
36 | TAAGCCGCATGGACCGGTTTTCCCGGTAATCCGTATTTGCA (site GGGTTGCCTGA) | 0
37 | AGGAAGACATGGACCGGTTTTCCCGGTAATCCGTATTTGAA (site AGGAAGACTTC) | 0.592
38 | CGGACTTCATGGACCGGTTTTCCCGGTAATCCGTATTTGCT (site CGGACATCTAG) | 0.905
